Molecular target: HCV NS3/4A protease genotype 1b (Hepatitis C virus genotype 1b, UniProt P26663)
Assay: HCV NS3/4A protease time-resolved fluorescence (TRF) assay, Ki against genotype 1b
Assay type: biochemical
Details: IC50 [gt-1b] (nM), NS3/4A genotype 1b, enzyme 0.2 nM
Method: Measuring NS3/4A Inhibitory Activity (Ki) Against Genotype 1b, Against A156T Mutants and Against Genotype 3a
One assay for measuring inhibitory activity is HCV NS3 protease time-resolved fluorescence (TRF) assay as described below and in Mao et al., Anal. Biochem. 373:1-8, 2008 and International Patent Application Publication WO 2006/102087. A NS3 protease assay can be performed, for example, in a final volume of 20 μl assay buffer containing 50 mM HEPES, pH 7.5, 150 mM NaCl, 15% glycerol, 0.15% TRITON X-100, 10 mM DTT, and 0.1% PEG 8000. NS3 and NS4A protease is pre-incubated with various concentrations of inhibitors in DMSO for 30 min. The reaction is initiated by adding the TRF peptide substrate (final concentration 25 nM). NS3 mediated hydrolysis of the substrate was run for 2.5 hours at room temperature. Product fluorescence is detected using A Pherastar Plus plate reader (BMG) or Envision (Perkin Elmer Life and Analytical Sciences with excitation at 340 nm and emission at 615 nm using the appropriate delay time optimized for the europium fluorescence probe. Testing concentrations of different enzyme forms are selected to result in a signal to background ratio (S/B) of 10-30. IC50 values are derived using a standard four-parameter fit to the data. Ki values are derived from IC50 values using the following formula, IC50=Ki(1+[S]/KM), Eqn (1), where [S] is the concentration of substrate peptide in the reaction and KM is the Michaelis constant. See P. Gallinari et al., 38 BIOCHEM. 5620-32 (1999); P. Gallinari et al., 72 J. VIROL. 6758-69 (1998); M. Taliani et al., 240 ANAL. BIOCHEM. 60-67 (1996); Mao et al., Analytical Biochemistry 373: 1-8, 2008.
The assay described above was run against genotype 1b at a concentration of 0.2 nM, against A156T mutant strains at a concentration of 0.4 nM, and against genotype 3a at a concentration of 0.025 nM.

In order of rising IC50:
1. COc1ccc2nc(C(F)F)c3c(c2n1)CC[C@]1(C[C@H]2C(=O)N[C@]4(C(=O)NS(=O)(=O)C5(C)CC5)C[C@H]4/C=C\CCCCC[C@H](NC(=O)OC(C)(C)C)C(=O)N2C1)O3 [Example 12, tert-Butyl ((2R,6S,13aS,14aR,16aS,Z)-6′-(difluoromethyl)-2′-methoxy-14a-(((1-methylcyclopropyl)sulfonyl)carbamoyl)-5,16-dioxo-3,5,6,7,8,9,9′,10,10′,11,13a,14,14a, 15,16,16a-hexadecahydro-1H-spiro[cyclopropa[e]pyrrolo[1,2-a][1,4]diazacyclopentadecine-2,8′-pyrano[2,3-c][1,5]naphthyridin]-6-yl)carbamate]  0.007 nM
2. COc1ccc2nc(C(F)(F)F)c3c(c2c1)OC[C@]1(C[C@H]2C(=O)N[C@]4(C(=O)NS(=O)(=O)C5(C)CC5)C[C@H]4/C=C\CCCCC[C@H](NC(=O)OC(C)(C)C)C(=O)N2C1)O3 [Example 8, tert-Butyl ((2′R,6′S,13a′S,14a′R,16a′S,Z)-9-methoxy-14a′-(((1-methylcyclopropyl)sulfonyl)carbamoyl)-5′,16′-dioxo-5-(trifluoromethyl)-3′,5′,6′,7′,8′,9′,10′,11′, 13a′,14′,14a′,15′,16′,16a′-tetradecahydro-1H,2H-spiro[[1,4]dioxino[2,3-c]quinoline-3,2′-cyclopropa[e]pyrrolo[1,2-a][1,4]diazacyclopentadecin]-6′-yl)carbamate]  0.011 nM
3. CC(C)(C)OC(=O)N[C@H]1CCCCC/C=C\[C@@H]2C[C@@]2(C(=O)NS(=O)(=O)C2(C)CC2)NC(=O)[C@@H]2C[C@]3(CCc4c(c(C(F)(F)F)nc5ccc(OCCN6CCCCC6)cc45)O3)CN2C1=O [Example 67, tert-Butyl ((2R,6S,13aS,14aR,16aS,Z)-14a-(((1-methylcyclopropyl)sulfonyl)carbamoyl)-5,16-dioxo-9′(2-(piperidin-1-yl)ethoxy)-5′-(trifluoromethyl)-1′,2′,3,5,6,7,8,9,10,11,13a,14,14a,15,16,16a-hexadecahydro-1H-spiro[cyclopropa[e]pyrrolo[1,2-a][1,4]diazacyclopentadecine-2,3′-pyrano[2,3-c]quinolin]-6-yl)carbamate]  0.021 nM
4. COc1ccc2nc(C(C)C)c3c(c2c1)[C@H](F)C[C@]1(C[C@H]2C(=O)N[C@]4(C(=O)NS(=O)(=O)C5(C)CC5)C[C@H]4/C=C\CCCCC[C@H](NC(=O)OC(C)(C)C)C(=O)N2C1)O3 [Example 32, tert-butyl ((1′R,2S,6S,13aS,14aR,16aS,Z)-1′-fluoro-5′-isopropyl-9′-methoxy-14a-(((1-methylcyclopropyl)sulfonyl)carbamoyl)-5,16-dioxo-1′,2′,3,5,6,7,8,9,10,11,13a,14, 14a,15,16,16a-hexadecahydro-1H-spiro[cyclopropa[e]pyrrolo[1,2-a][1,4]diazacyclopentadecine-2,3′-pyrano[2,3-c]quinolin]-6-yl)carbamate]  0.024 nM
5. Cc1nc2ccc(OC(F)(F)F)cc2c2c1O[C@]1(CC2)C[C@H]2C(=O)N[C@]3(C(=O)NS(=O)(=O)C4(C)CC4)C[C@H]3/C=C\CCCCC[C@H](NC(=O)OC3(C)CCCC3)C(=O)N2C1 [Example 209, 1-methylcyclopentyl [(2R,6S,12Z,13aS,14aR,16aS)-5′-methyl-14a-{[(1-methylcyclopropyl)sulfonyl]carbamoyl}-5,16-dioxo-9′-(trifluoromethoxy)-1,1′,2′,5,6,7,8,9,10,11,13a,14,14a,15,16,16a-hexadecahydrospiro[cyclopropa[e]pyrrolo[1,2-a][1,4]diazacyclopentadecine-2,3′-pyrano[2,3-c]quinolin]-6-yl]carbamate]  0.03 nM
6. Cc1nc2ccccc2c2c1O[C@]1(CC2)C[C@H]2C(=O)N[C@]3(C(=O)NS(=O)(=O)C4(C)CC4)C[C@H]3/C=C\CCCCC[C@H](NC(=O)OC3CCN(C)CC3)C(=O)N2C1 [Example 117, 1-methylpiperidin-4-yl [(2R,6S,12Z,13aS,14aR,16aS)-5′-methyl-14a-{[(1-methylcyclopropyl)sulfonyl]carbamoyl}-5,16-dioxo-1,1′,2′,5,6,7,8,9,10,11,13a,14,14a,15,16,16a-hexadecahydrospiro[cyclopropa[e]pyrrolo[1,2-a][1,4]diazacyclopentadecine-2,3′-pyrano[2,3-c]quinolin]-6-yl]carbamate]  0.056 nM

Same assay, conditions: IC50 [gt-1b] (nM), NS3/4A genotype 1b, enzyme 0.2 nM; K+ salt

In order of falling IC50:
1. Cc1nc2cc(F)c(F)cc2c2c1O[C@]1(CC2)C[C@H]2C(=O)N[C@]3(C(=O)NS(=O)(=O)C4(C)CC4)C[C@H]3/C=C\CCCCC[C@H](NC(=O)OC3CCCCC3)C(=O)N2C1 [Example 203, cyclohexyl [(2R,6S,12Z,13aS,14aR,16aS)-8′,9′-difluoro-5′-methyl-14a-{[(1-methylcyclopropyl)sulfonyl]carbamoyl}-5,16-dioxo-1,1′,2′,5,6,7,8,9,10,11,13a,14,14a,15,16,16a-hexadecahydrospiro[cyclopropa[e]pyrrolo[1,2-a][1,4]diazacyclopentadecine-2,3′-pyrano[2,3-c]quinolin]-6-yl]carbamate]  0.015 nM
2. Cc1nc2cc(F)c(F)cc2c2c1O[C@]1(CC2)C[C@H]2C(=O)N[C@]3(C(=O)NS(=O)(=O)C4(C)CC4)C[C@H]3/C=C\CCCCC[C@H](NC(=O)OC3CCC3)C(=O)N2C1 [Example 204, cyclobutyl [(2R,6S,12Z,13aS,14aR,16aS)-8′,9′-difluoro-5′-methyl-14a-{[(1-methylcyclopropyl)sulfonyl]carbamoyl}-5,16-dioxo-1,1′,2′,5,6,7,8,9,10,11,13a,14,14a,15,16,16a-hexadecahydrospiro[cyclopropa[e]pyrrolo[1,2-a][1,4]diazacyclopentadecine-2,3′-pyrano[2,3-c]quinolin]-6-yl]carbamate]  0.015 nM
3. COc1ccc2nc(C)c3c(c2c1)CC[C@]1(C[C@H]2C(=O)N[C@]4(C(=O)NS(=O)(=O)C5(C)CC5)C[C@H]4/C=C\CCCCC[C@H](NC(=O)OC4(C)CCC4)C(=O)N2C1)O3 [Example 186, 1-methylcyclobutyl [(2R,6S,12Z,13aS,14aR,16aS)-9′-methoxy-5′-methyl-14a-{[(1-methylcyclopropyl)sulfonyl]carbamoyl}-5,16-dioxo-1,1′,2′,5,6,7,8,9,10,11,13a,14,14a,15,16,16a-hexadecahydrospiro[cyclopropa[e]pyrrolo[1,2-a][1,4]diazacyclopentadecine-2,3′-pyrano[2,3-c]quinolin]-6-yl]carbamate]  0.009 nM
4. COc1ccc2nc(C)c3c(c2c1)CC[C@]1(C[C@H]2C(=O)N[C@]4(C(=O)NS(=O)(=O)C5(C)CC5)C[C@H]4/C=C\CCCCC[C@H](NC(=O)OC(C)(C)C)C(=O)N2C1)O3 [Example 9, tert-Butyl [(2R,6S,12Z,13aS,14aR,16aS)-9′-methoxy-5′-methyl-14a-{[(1-methylcyclopropyl)sulfonyl]carbamoyl}-5,16-dioxo-1,1′,2′,5,6,7,8,9,10,11,13a,14,14a,15, 16,16a-hexadecahydrospiro[cyclopropa[e]pyrrolo[1,2-a][1,4]diazacyclopentadecine-2,3′-pyrano[2,3-c]quinolin]-6-yl]carbamate]  0.006 nM
5. COc1ccc2nc(C)c3c(c2c1)CC[C@]1(C[C@H]2C(=O)N[C@]4(C(=O)NS(=O)(=O)C5(C)CC5)C[C@H]4/C=C\CCCCC[C@H](NC(=O)OCC4CCC4)C(=O)N2C1)O3 [Example 213, cyclobutylmethyl [(2R,6S,12Z,13aS,14aR,16aS)-9′-methoxy-5′-methyl-14a-{[(1-methylcyclopropyl)sulfonyl]carbamoyl}-5,16-dioxo-1,1′,2′,5,6,7,8,9,10,11,13a,14,14a,15,16,16a-hexadecahydrospiro[cyclopropa[e]pyrrolo[1,2-a][1,4]diazacyclopentadecine-2,3′-pyrano[2,3-c]quinolin]-6-yl]carbamate]  0.004 nM
6. COc1ccc2nc(C)c3c(c2c1)CC[C@]1(C[C@H]2C(=O)N[C@]4(C(=O)NS(=O)(=O)C5(C)CC5)C[C@H]4/C=C\CCCCC[C@H](NC(=O)OC4(C5CC5)CC4)C(=O)N2C1)O3 [Example 212, 1,1′-bi(cyclopropyl)-1-yl [(2R,6S,12Z,13aS,14aR,16aS)-9′-methoxy-5′-methyl-14a-{[(1-methylcyclopropyl)sulfonyl]carbamoyl}-5,16-dioxo-1,1′,2′,5,6,7,8,9,10,11,13a,14,14a,15,16,16a-hexadecahydrospiro[cyclopropa[e]pyrrolo[1,2-a][1,4]diazcyclopentadecine-2,3′-pyrano[2,3-c]quinolin]-6-yl]carbamate]  0.003 nM

— patent US8987195B2 (priority 2012, dated 2015)
